According to US12668590B2, “Composition and method for treating metabolic disorders” (priority 2016, dated 2026):

Tests used:
[1] = Stability (degradation) of pharmaceutical preparations at 40° C. and 70% relative humidity; assay type: physicochemical; details: three-month period, compared to bromocriptine mesylate
Protocol: Pharmaceutical preparations of bromocriptine mesylate and bromocriptine citrate are exposed to atmospheric conditions (40° C. and 70% relative humidity) and the degradation of the bromocriptine is assessed over time.

[2] = Aqueous solubility/dissolution of bromocriptine citrate relative to bromocriptine mesylate; assay type: physicochemical; details: various pH conditions, compared to bromocriptine mesylate
Protocol: Solid samples of equal amounts of bromocriptine mesylate and bromocriptine citrate added, under various pH conditions, to equal volumes of water or water/organic solutions in different vessels and the dissolution of the bromocriptine samples (aqueous solubility) was assessed over time.

## 2-bromo-alpha-ergocryptine citrate [bromocriptine citrate]
[1]
  degradation of the bromocriptine: substantially less
[2]; solid samples in water or water/organic solutions
  rate of dissolution: dissolve much more quickly
[2]; water or water/organic solutions
  aqueous solubility (mg of bromocriptine dissolved per ml of water): significantly greater solubility
